{"source": "patent US20230278974A1", "about": "“ANTITUMORAL ASCORBIC ACID ESTERS” (SUIGENERIS FARMACOSMETICS, S.L., priority 2020, published 2023)", "tested_on": "primary or metastatic human cancer cells from various origins (IGR39, IGR37, MW115, MW266.4, DLD1, SW480, HCT116, NUG-C4, COLO668, BXPC3, CAPAN2, RWP1)", "assay": "Growth inhibition of human cancer cell lines (crystal violet staining, 96 well plates)", "format": "cell-based", "settings": "even at concentrations as low as 0.2 mM; 72 h treatment", "text": "The BXPC3, CAPAN2, RWP1 cell lines from human pancreatic cancer were provided by the Biomedical Research Institute (IRB) Barcelona; the MW115 and IGR39 cell lines from human primary melanoma and MW 266.4 and IGR37 from human metastatic melanoma were provided by Dr. Manel Esteller from the Catalan Institute of Oncology (ICO) Barcelona (Vizoso M. et al., “Epigenetic activation of a cryptic TBC1D16 transcript enhances melanoma progression by targeting EGFR” Nat Med., 2015, vol 21(7), pp. 741-50); DLDL1, SW480 and HCT116 cell lines from human colon cancer were provided by Dra. Neus Agell from the Research Institute August Pi Sunyer (IDIBAPS) - University of Barcelona (UB); NUG-C4 and COLO668 cell lines from human gastric and lung cancers, respectively, were provided by the Center for Genomic Regulation (CRG) Barcelona. […]\nThe cells were resuspended by trypsin/EDTA digestion with 0.5% Trypsin-EDTA in the case of different human cancer cell lines, and 0.25% Trypsin-EDTA in the case of human primary endothelial cells. Once resuspended in culture medium, they were counted in Newbauer chamber after a 1:1 dilution with trypan blue. […]\nThe optical density values per well were obtained by a Biotek Synergy™2 multi-detection microplate reader, using a 590 nm filter and by scanning reading, obtaining the mean values per well.", "data": [{"smiles": "CCCCCCC1CCC(CCC(=O)OC[C@H](O)[C@H]2OC(=O)C(O)=C2O)CC1", "note": "(stereo partly drawn) [Compound Ib, (S)-2-((R)-3,4-Dihydroxy-5-Oxo-2,5-Dihydrofuran-2-Yl)-2-Hydroxyethyl 3-(4-Hexylcyclohexyl)Propanoate]", "values": [{"measurement": "inhibitory capacity on growth of cancer cells", "value": "remarkable inhibitory capacity"}]}]}
